Measurements published in patent US20260193531A1, “LIQUID WEIGHTING AGENTS FOR OIL-BASED FLUIDS” (Albemarle Corporation, priority 2022, published 2026).
Read-outs that look alike come from different tables or passages of the source.

Key:
[1] = Density of the esters and ester mixtures; type: physicochemical
[2] = system: Leptocheirus plumulosus; type: in vivo; settings: for Quantity: estimate
Protocol: Sediment toxicity testing. Sediment toxicity testing was according to U.S. Environmental Protection Agency Method 1644, the “Method for Conducting a Sediment Toxicity Test with Leptocheirus plumulosus and Non-Aqueous Drilling Fluids or Synthetic-Based Drilling Muds”. The testing procedure was as follows: • 1. Leptocheirus plumulosus amphipods were cultured and maintained in natural sediment at 23±2° C. before being exposed to a test sample. • 2. A sample contained sediment, synthetic seawater, and the substance being tested. Five samples of each substance were prepared and tested, the sample having concentrations of 100, 200, 400, 800, and 1600 mg/kg of the substance to be tested. • 3. For each sample, a 1-liter jar was prepared with approximately 150 mL of formulated sediment with 600 mL of synthetic sea water, and the substance to be tested. • 4. In each test, 20 Leptocheirus plumulosus amphipods were exposed to the sample at 20±1° C. for 10 days in the 1-L closed jar; the Leptocheirus plumulosus amphipods were not fed after the test was initiated. • 5. At the end of 10 days, the Leptocheirus plumulosus amphipods remaining alive were counted and an LC50 value was predicted based on those results.

[3] = Closed-bottle anaerobic biodegradation test, EPA Method 1647 (275 days); settings: Duration 275 days
Protocol: Anaerobic biodegradation testing. […] For each substance, four samples were run. Each test was compared to separate standard samples containing ethyl oleate, squalane, 1-hexadecene, C16-18 internal olefin, or no additive. To pass the test, the sample must have more net biodegradation than the C16-18 internal olefin. The testing procedure was as follows: • 1. Each test mixture was prepared by combining with 2000 mg carbon (sample) per kg of natural sediment; 30 grams of the mixture were used for each sample run. The carbon content of the sample was measured before mixing the sample with the sediment. […] After a bottle was capped, a nitrogen sparge was employed to remove air in the headspace of the bottle before incubation was started. • 3. During the incubation period, the sample is kept at a constant temperature of 29±1° C. • 4. […] Each sample was brought to ambient temperature to make each measurement. Gas production was measured with a pressure gauge, and barometric pressure was also measured at the time of measurement to make volume corrections.

[4] = Miscibility with a base oil (solid formation or phase separation after one week); type: physicochemical; settings: 50:50 weight mixture with a base oil; for miscibility: room temperature
Protocol: Some of the liquid weighting agents of this invention are usable as oil-miscible weighting agents (OMWA). As used throughout this document, the term “miscible” means that emulsions and/or separate phases are not observed in a 50:50 weight mixture of one or more of the liquid weighting agents of this invention (total of 50 wt %) and an oil (50 wt %) after the mixture has been kept at 0° C. for one week. Similarly, as used throughout this document, the term “partially miscible” means that emulsions and/or separate phases are not observed in a 50:50 weight mixture of one or more of the liquid weighting agents of this invention (total of 50 wt %) and an oil (50 wt %) after the mixture has been kept at room temperature for one week.
The tribromoneopentyl esters were each combined with a base oil in a 50:50 weight mixture.
Some of the tribromoneopentyl monoesters were tested in pairs in a base oil in a 25:25:50 weight ratio, with 25 wt % of each tribromoneopentyl monoester and 50 wt % of the base oil.
The dibromoallyl esters were each combined with a base oil in a 50:50 weight mixture.
Several mixtures of a monoester containing a terminal alkene moiety were tested in a base oil in a 50:50 weight mixture.
Several mixtures of a tribromoneopentyl monoester and a monoester containing a terminal alkene moiety were tested in a base oil in a 25:25:50 weight ratio, with 25 wt % of the tribromoneopentyl monoester, 25 wt % of 2,3-dibromoprop-2-en-1-yl propanoate, and 50 wt % of the base oil.

[5] = sediment toxicity test, Pass/Fail

| Structure (SMILES) | Density [1] [g/mL] | also measured |
| --- | --- | --- |
| CC(C)C(=O)OCC(CBr)(CBr)COC(=O)C(C)C [2,2-bis(bromomethyl)1,3-propanediol-1,3-di(2-methylpropanoate)] | 1.46 |  |
| CCCCCC(=O)OCC(CBr)(CBr)COC(=O)CCCCC [2,2-bis(bromomethyl)1,3-propanediol-1,3-dihexanoate] | 1.28 | Result ([2]; in vivo): Pass; Amount biodegradation [3]: 7.36% |
| CC(=O)OCC(Br)=CBr [2,3-dibromoallyl acetate] | 1.83 | solid formation or phase separation ([4]; 0° C. for one week): no solid formation or phase separation was observed |
| CCC(=O)OC/C(Br)=C(\Br)COC(=O)CC [(2E)-2,3-dibromobut-2-ene-1,4-diyl bis(propanoate)] | 1.59 | Result ([2]; in vivo): Pass; Amount biodegradation [3]: 54.64% |
| CC(C)C(=O)OCC(CBr)(CBr)CBr [tribromoneopentyl 2-methylpropanoate, 3-bromo-2,2-bis(bromomethyl)propyl 2-methylpropanoate] | 1.79 | Result [2, 5]: Fail; Quantity ([2]; sediment toxicity test): ~243 mg/kg (estimate) |
| CCCC(=O)OCC(CBr)(CBr)CBr [tribromoneopentyl butyrate, 3-bromo-2,2-bis(bromomethyl)propyl butyrate] | 1.79 | solid formation or phase separation ([4]; 0° C. for one week): no solid formation or phase separation was observed |
| CCCCCC(=O)OCC(CBr)(CBr)CBr [tribromoneopentyl hexanoate, 3-bromo-2,2-bis(bromomethyl)propyl hexanoate] | 1.57 |  |
| CC(C)CC(=O)OCC(CBr)(CBr)CBr [tribromoneopentyl isovalerate, 3-bromo-2,2-bis(bromomethyl)propyl isovalerate] | 1.73 |  |
| CCC(=O)OCC(CBr)(CBr)CBr [tribromoneopentyl propionate, 3-bromo-2,2-bis(bromomethyl)propyl propionate] | 1.87 | solid formation or phase separation ([4]; 0° C. for one week): phase separation was observed; solid formation or phase separation ([4]; kept at −18° C. for one week): phase separation was observed |
| CCCCC(=O)OCC(CBr)(CBr)CBr [tribromoneopentyl valerate, 3-bromo-2,2-bis(bromomethyl)propyl pentanoate] | 1.72 | Result [2, 5]: Pass; Quantity ([2]; sediment toxicity test): ~363 mg/kg (estimate) |

The next lines start with results.

| Density [1] [g/mL] | Structure (SMILES) | also measured |
| --- | --- | --- |
| 2.13 | O=C(CBr)OCC(CBr)(CBr)COC(=O)CBr [2,2-bis(bromomethyl)1,3-propanediol-1,3-bis-(bromoacetate)] |  |
| 1.62 | CCC(=O)OCC(CBr)(CBr)COC(=O)CC [2,2-bis(bromomethyl)1,3-propanediol-1,3-dipropionate] |  |
| 1.70 | CC(C)C(=O)OCC(Br)=CBr [2,3-dibromoallyl 2-methylpropanoate] | solid formation or phase separation ([4]; kept at −18° C. for one week): no solid formation or phase separation was observed; miscibility [4]: miscible |
| 1.79 | CCC(=O)OCC(Br)=CBr [2,3-dibromoallyl propionate] | solid formation or phase separation ([4]; kept at −18° C. for one week): no solid formation or phase separation was observed; miscibility [4]: miscible |
| 1.49 | CC(C)C(=O)OC/C(Br)=C(\Br)COC(=O)C(C)C [(2E)-2,3-dibromobut-2-ene-1,4-diyl bis(2-methylpropanoate)] |  |
| 1.94 | CCC(Br)C(=O)OC/C(Br)=C(\Br)COC(=O)C(Br)CC (centres unmarked) [(2E)-2,3-dibromobut-2-ene-1,4-diyl bis(2′-bromobutyrate)] |  |
| 1.74 | O=C(CBr)OC/C=C\COC(=O)CBr [(2Z)-but-2-ene-1,4-diyl bis(bromoacetate)] |  |
| 1.62 | CC(C)C(=O)OCc1cc(Br)cc(Br)c1 [(3,5-dibromophenyl)methyl 2-methylpropanoate] |  |
| 1.76 | CC(=O)OCc1cc(Br)cc(Br)c1 [(3,5-dibromophenyl)methyl acetate] |  |
| 2.06 | O=C(CBr)OCc1cc(Br)cc(Br)c1 [(3,5-dibromophenyl)methyl bromoacetate] |  |
| 1.62 | CCCC(=O)OCc1cc(Br)cc(Br)c1 [(3,5-dibromophenyl)methyl butyrate] | Amount biodegradation [3]: 25.1% |
| 1.56 | CCCCC(=O)OCc1cc(Br)cc(Br)c1 [(3,5-dibromophenyl)methyl pentanoate] |  |
| 1.68 | CCC(=O)OCc1cc(Br)cc(Br)c1 [(3,5-dibromophenyl)methyl propionate] |  |
| 1.95 | O=C(CBr)OCC(COC(=O)CBr)OC(=O)CBr [propane-1,2,3-triyl tris (bromoacetate)] |  |
